The values below come from patent publication US20160243198A1, “Pharmaceutical Composition for Preventing or Treating Osteoporosis Which Comprises Neuropeptide Y as Active Ingredient” (KYUNGPOOK NATIONAL UNIVERSITY INDUSTRY-ACADEMIC COOPERATION …, priority 2013, published 2016).

One assay deals with S1P receptor. The note with it: administered so as to reduce the number of the osteoclasts in the bone marrow; cited from earlier work.
Assay [1] deals with bone-marrow haematopoietic stem cells and bone-marrow hematopoietic progenitor cells. The assay can be described thus: Competitive transplantation assay. Format: in vivo, mice. The procedure: As an experimental method capable of determining the migration of bone-marrow haematopoietic stem cells and bone-marrow hematopoietic progenitor cells present in the bone marrows of the mice into blood, a competitive transplantation assay were performed.
A mixture of bone marrow cells (2×10^6) of Ly5.2 (C57BL/6) donor mice and bone marrow cells (2×10^6) of Ly5.1 (BoyJ) mice was injected to recipient mice whose whole bodies were exposed to 10 Gy irradiations (2×5 Gy) through the tail veins thereof. On the week 8 of transplantation of the bone marrow cells, blood was drawn from the recipient mice, and analyzed by an LSR II (BD science) flow cytometer using CD45.1-PE (BD Science), and CD45.2-FITC (BD Science) antibodies. Repopulating units (RU) are indicated using a calculation method represented by the following Equation 1.
Repopulating unit (RU)=(20×CD45.2%)/(100−CD45.2%) [Equation 1]
A mixture of bone marrow cells ([…]) of Ly5.2 (C57BL/6) donor mice and bone marrow cells ([…]) of Ly5.1 (BoyJ) mice was injected to recipient mice whose whole bodies were exposed to 10 Gy irradiations (2×5 Gy) through the tail veins thereof. On the week 8 of transplantation of the bone marrow cells, blood was drawn from the recipient mice, and analyzed by an LSR II (BD science) flow cytometer using CD45.1-PE (BD Science), and CD45.2-FITC (BD Science) antibodies. […]

The test system of assay [2] is bone-marrow hematopoietic progenitor cells in blood. The assay can be described thus: Colony-forming cell (CFC) assay of blood after tail-vein injection. Format: in vivo, mice. The following applies: 50 μg/kg tail vein; after 60 minutes of injection (of 15 minutes, 60 minutes, 12 hours). The procedure:
(§1) Neuropeptide Y, a Y1 agonist, and a Y1 antagonist were purchased from Bache, and used. To perform an in vitro experiment, 1 nM NPY, and 5 nM NPY were diluted with a medium, and injected. For the in vivo experiment, a total of 15 mice (three mice in each group) were also anesthetized with a mixed solution of 100 mg/kg ketamine and 10 mg/kg xylazine, and 50 μg/kg of either neuropeptide Y, Y1 agonist, or Y1 antagonist, and 100 μl of PBS (Gibco) were injected through the tail veins of the mice.
A colony-forming cell (CFC) assay was performed to measure the number of bone-marrow hematopoietic progenitor cells in blood from mice.
First, the mice were anesthetized, and 500 μl to 700 μl of blood was drawn from the hearts of the mice, and collected in a heparin tube. Thereafter, the collected blood was added to an ammonium chloride solution (Stem Cell Technologies, Inc. 1:10), and kept in ice for 15 minutes to remove red blood cells. The blood was shaken at intervals of 2 to 3 minutes to sufficiently remove the red blood cells, and centrifuged at 1,000 rpm for 7 minutes. […] Then, colonies formed on the flask were counted. […]
To examine an effect of the activation of the neuropeptide Y receptor on the release of the bone marrow precursor cells into the blood, the colony number of the bone marrow precursor cells was also counted using a CFC assay as described in Example 1-4. […]

The subject of assay [3] is bone-marrow haematopoietic stem cell adhesion factors. The assay can be described thus: Expression of bone-marrow haematopoietic stem cell adhesion factors in bone marrow after tail-vein injection (real-time quantitative PCR). Format: in vivo, mice. The following applies: 50 μg/kg through the tail veins; bone marrow taken after 60 minutes; p<0.05, n=3. Here is the method: as §1
(§2) To measure expression levels of haematopoietic stem cell adhesion factors (Sdf-1a, Kit1, Angpt1, IL7, Vcam1, and Spp1) present in the osteoblasts, a real-time quantitative polymerase chain reaction (PCR) method was used.
(§3) A total of RNAs were extracted from a cell lysate and bone marrow cells using an RNeasy Plus Mini kit (Qiagen, Korea, Ltd), and cDNA was synthesized from a total of 5 μg of RNA using a kit commercially available from Clontech (Mountain View, Calif.). Also, real-time quantitative PCR, which included denaturation at 95° C. for 10 minutes; and 40 cycles with one cycle consisting of denaturation at 95° C. for 10 seconds, annealing at 58° C. for 15 seconds, and extension at 72° C. for 20 seconds, was performed using a Corbett research RG-6000 real-time PCR machine. […]

Another assay deals with osteoporosis model. As to the kind of experiment: Osteoporosis model (ovariotomy) and control model, micro-CT of femurs. Format: in vivo, C57BL/6 female mice. The following applies: for entire bone density in micro-CT images: compared to PBS. Here is the method: Also, a total 6 female mice (three mice in each group), 12 weeks old, were subjected to an ovariotomy to establish an osteoporosis model. After a week, 50 μg/kg of neuropeptide Y and 100 μl of PBS (Gibco) were abdominally administered twice a day to the female mice at an interval of 12 hours for 3 weeks. As the control, a total 6 female mice (three mice in each group) were subjected to […] to establish a Sham model for osteoporosis. In this case, 100 μl of PBS or 50 μg/kg of neuropeptide Y was abdominally administered. […] To measure a bone density (bone volume/total volume) and a trabecular thickness, volume fractions with 2.5×0.5×0.5 mm^3 in the same portions of the femurs in each group were measured using Siemens Inveon software. First, three C57BL/6 female mice in each group, 12 weeks old, were subjected to an ovariotomy to establish an osteoporosis model. After a week, 50 μg/kg of neuropeptide Y and 100 μl of PBS (Gibco) were abdominally administered twice a day to the female mice at an interval of 12 hours for 3 weeks. As the control, the normal mice which were subjected to subcutaneous incision alone and into which 100 μl of PBS and 50 μg/kg of neuropeptide Y were abdominally administered were used. On the 22nd day, the femurs of the mice were isolated, and refrigerated in 80% ethanol, and the bone density and the trabecular thickness were then measured using micro CT.

For assay [4], the system named is haematopoietic stem cell adhesion factors (Sdf-1a, Kit1, Angpt1, IL7, Vcam1, and Spp1) present in the osteoblasts. As to the kind of experiment: Expression of haematopoietic stem cell adhesion factors in osteoblasts treated with neuropeptide Y (real-time quantitative PCR). Format: cell-based, C57BL/6 mice. The following applies: neuropeptide Y 0, 1, and 5 nM for 3 days; compared to untreated osteoblasts (control); p<0.05, n=3. The procedure: as §1
Four- to six-week-old C57BL/6 mice were anesthetized, and sacrificed, and their tibias and femurs were incised. […]
as §2, §3

In assay [5] the test system is bone-marrow haematopoietic stem cells. The assay can be described thus: Flow cytometry analysis (FAC) of bone-marrow haematopoietic stem cells. Format: in vivo, mice. The following applies: 50 μg/kg; bone marrow after 60 minutes; compared to PBS; p<0.05, n=3. The procedure:
To determine whether there is a change in the number of the bone-marrow haematopoietic stem cells present in the bone marrows from the mice, NPY and PBS were injected to normal mice. After 60 minutes, the bone marrows were collected, and analyzed by flow cytometry analysis (FAC) using five antibodies Lineage, Sca-1, c-kit, CD48, and CD150, which were markers for the bone-marrow haematopoietic stem cells.
To analyze the bone-marrow haematopoietic stem cells, the bone marrows collected from the tibias and femurs of 4- to 6-week-old C57BL/6 mice was added in an ammonium chloride solution (Stem Cell Technologies, Inc. 1:4) to remove red blood cells. Thereafter, the red blood cells were washed with a PBS (Gibco) solution supplemented with 10% fetal bovine serum (FBS, Gibco) and 1% sodium azide (Sigma-Aldrich), and then centrifuged at 300×g for 10 minutes. Hemoblasts included in the bone marrow were removed with MAC beads (MiltenyiBiotec) using a biotinylated lineage antibody (MiltenyiBiotec), and the remaining cells were reacted with Sca-1-PECY7, c-kit-APC, CD150-PE, CD48-FITC (BD Science) antibodies at 4° C. for 30 minutes, and then analyzed using an LSRII (BD Science) flow cytometer.
First, normal mice were divided into two groups (three mice in each group), and 50 μg/kg of neuropeptide Y and 100 μl of PBS (Gibco) were administered to the mice. […]

Where [6] appears, read: osteoporotic (OVX) mice, 50 μg/kg abdominally twice a day for 3 weeks, versus PBS, n=3.

“Also recorded” adds a separate entry of the source.

`CCCCCCCCc1ccc(CCC(N)(CO)CO)cc1` [FTY720]: in the assay on S1P receptor, the bone formation result is reported as “increases”.
Consider `CCCCCCCCCCCCC/C=C/[C@@H](O)[C@@H](N)COP(=O)(O)O` [sphingosine-1-phosphate], for which, in the assay on S1P receptor, the bone formation entry is recorded as “increases”.
In the case of neuropeptide Y, the “number of the haematopoietic stem cells (CD45.2+ cells) in the bone marrows of injected mice” value in assay [1] (compared to bone marrows of mice into which PBS was injected) is given as “lower”. In assay [1] (donor bone marrow of injected mice mixed with Ly5.1 bone marrow, recipient blood 8 weeks after transplantation, compared to PBS), the “ratio of the CD45.2+ cells” value is listed as “reduced”. Also, the “colony number of the bone-marrow hematopoietic progenitor cells released into the blood” value in assay [2] is given as “largest colony number”. Moreover, in assay [3], the “expression levels of the adhesion factors Sdf-1a, Kit1, Angpt1, and Vcam1 in bone marrow” value is on record as “decreased; also recorded: generally reduced”. Besides, the “entire bone density in micro-CT images” value in the assay with osteoporosis model (control (Sham) model, 50 μg/kg abdominally) is on record as “higher entire bone density; also recorded: increased”. Moreover, the “decrease in bone density and trabecular thickness of the osteoporotic mice” value in the assay with osteoporosis model (long-term administration in the osteoporosis model) is “inhibited”. In the assay on osteoporosis model (osteoporotic (OVX) mice, 50 μg/kg abdominally twice a day for 3 weeks), the “entire bone density in micro-CT images” value is reported as “higher entire bone density; also recorded: remarkably increased”. In the assay with osteoporosis model (setting [6]), the “bone density (BV/TV, %)” value is given as “higher” and the “trabecular thickness (mm)” value was “higher”. Also, the “expression levels of Sdf-1a, Kit1, and Angpt1 in osteoblasts” value in assay [4] is recorded as “decreased in a ration-dependent manner”. The “bone-marrow haematopoietic stem cells labeled with Lin−, Sca-1+, c-kit+, CD48−, and CD150+ in the bone marrow” value in assay [5] is recorded as “decreased in the bone marrow”.
